Measured values: patent US10383848B2, “Indole-based therapeutics” (Creighton University, priority 2016, dated 2019)
Converted amounts (≈) assume the structure as drawn. Where two headings read alike, the source gives them in different places.

What was measured:
[1] = system: M. abscessus ATCC 19977; assay: MIC, resazurin microtiter assay; type: cell-based; conditions: Mycobacteroides abscessus
[2] = system: M. abscessus DCI #21; assay: MIC, resazurin microtiter assay; type: cell-based; conditions: for MIC: Mycobacteroides abscessus, read-out: MIC M. abscessus DCI #21
[3] = system: M. massiliense CIP 108297; assay: MIC, resazurin microtiter assay; type: cell-based; conditions: Mycobacteroides abscessus
[4] = system: M. massiliense CRM 0019; assay: MIC, resazurin microtiter assay; type: cell-based; conditions: for MIC: Mycobacteroides abscessus
[5] = system: M. bolletii ATCC 14472; assay: MIC, resazurin microtiter assay; type: cell-based; conditions: for MIC: Mycobacteroides abscessus
[6] = system: M. chelonae ATCC 35752; assay: MIC, resazurin microtiter assay; type: cell-based; conditions: Mycobacteroides chelonae
[7] = system: M. tuberculosis H37Rv mc^26206; assay: microbe, parasite or virus in culture; type: cell-based; conditions: for Selectivity Index (TD50/MIC) M. tb H37Rv: TD50 in THP-1 cells
[8] = system: M. smegmatis mc^2155; assay: MIC, resazurin microtiter assay; type: cell-based; conditions: Mycolicibacterium smegmatis
[9] = system: M. avium 104; assay: MIC, resazurin microtiter assay; type: cell-based; conditions: Mycobacterium avium, 104, read-out: MIC M. avium 104
[10] = system: M. intracellulare 1956; assay: MIC, resazurin microtiter assay; type: cell-based; conditions: read-out: MIC M. avium Intracellulare 1956
[11] = system: M. xenopi WT; assay: MIC, resazurin microtiter assay; type: cell-based; conditions: Mycobacterium xenopi, read-out: MIC M. xenopi WT
[12] = system: P. aeruginosa PAO-1; assay: MIC, resazurin microtiter assay; type: cell-based, Pseudomonas aeruginosa; conditions: for MIC: Pseudomonas aeruginosa
[13] = system: S. aureus ATCC25923; assay: MIC, resazurin microtiter assay; type: cell-based; conditions: Staphylococcus aureus
[14] = system: THP-1 cells; assay: Cytotoxicity assay, THP-1 cell viability (CellTiter-Glo); type: cell-based, human; conditions: 3 days
Experimental: The cytotoxicity of compounds was determined by measuring THP-1 cell viability after 3 days in the presence of test compounds. Compounds were prepared as 10-point serial dilutions in DMSO. The highest concentration of compound tested was 50 μM where compounds were soluble in DMSO at 10 mM. THP-1 cells were cultured in complete RPMI and differentiated into macrophage-like cells using 80 nM PMA overnight at 37° C., 5% CO2. Cells were inoculated into assay plates and cultured for 24 h before compound dilutions were added to a final DMSO concentration of 0.5%. Each run included staurosporine as a control. Assay plates were incubated for 3 days at 37° C., 5% CO2, growth was measured using the CellTiter-Glo® Luminescent Cell Viability Assay (Promega) which uses ATP as an indicator of cell viability. Relative luminescent units (RLU) were measured using a Biotek Synergy 4 plate reader. The dose response curve was fitted using the Levenberg-Marquardt algorithm.

[15] = system: M. abscessus 103; assay: MIC/MBC by microbroth dilution (MH or 7H9 broth); type: cell-based, M. abscessus subsp. bolletii
[16] = system: M. abscessus 1513; assay: MIC/MBC by microbroth dilution (MH or 7H9 broth); type: cell-based, M. abscessus subsp. abscessus
[17] = In vivo acute toxicity assay (Maximum Tolerated Dose); set-up: species or system Balb/C mice; conditions: 100, 200 and 300 mg/kg for 3 consecutive days of dosing, gavage, mice
Experimental: 6-8 week old Balb/C female mice were ordered from Charles River. Mice were rested one to two weeks before dosing. For each dose of compound, 3 mice were utilized. […] Compound was given twice per day for 3 consecutive days by gavage, at 100 μl/mouse. Compounds were prepared the day before or the day of dosing and stored at 4° C. until dosing. The time of dosing was recorded for each mouse. Observations were recorded immediately, at 10 min, 1 hour, 2 hours, 4 hours, and 24 hours after dosing. […] Mice were dosed for three days and on the fourth day mice were observed twice daily for two days, then once daily for five days.
As an initial in vivo study, the safety of compounds and preliminary pharmacokinetics was assessed in an acute toxicity mouse model (Maximum Tolerated Dose assay, MTD) to evaluate any potential adverse effects and determine a safe dose for mouse efficacy studies. Compounds were tested to ensure safe use in healthy mice prior to any further in vivo testing. […] Novel compounds were generally administered to mice at 40, 75 and 100 mg/kg in a tested formulation, administered on three consecutive days, 3 mice per dose group, in the chosen formulation. […] Mice were observed 10 min, 1, 2, 4 hours after dosing and then daily afterwards. During the observations, humane handling practices and animal welfare regulations were strictly followed. […]

[18] = system: M. abscessus 103; assay: Acute SCID mouse infection efficacy model; conditions: for log10 CFU liver counts on day 12 / log10 CFU spleen counts on day 12: SCID mice i.v. infected with M. abscessus 103, compounds 300 mg/kg PO in 20% cyclodextrin, AMI 150 mg/kg SQ, once daily 8 days
[19] = system: M. massiliense strain 1513; assay: Metabolic labeling and mycolic acid analysis; conditions: 4x and 10x MIC, 16 hr, [1,2-14C]acetate labeling, TLC
Experimental: Cultures of M. massiliense 1513 grown to mid log-phase in Mueller-Hinton II broth were incubated with different concentrations of inhibitors for 16 hr at 37° C. with shaking. 0.5 μCi/mL [1,2-^14C]acetic acid (specific activity, 52 Ci/mol, PerkinElmer Inc.) was added at the same time as the inhibitors. Total lipids and cell wall-bound mycolic acid methyl esters were prepared from treated and untreated cells and analyzed by TLC as described in Grzegorzewicz et al, Nature Chemical Biology, 2012, 8:334+341.

[20] = system: mycobacteria; assay: organism not typed; type: cell-based; conditions: lowest concentration reducing CFU by 90% relative to the inoculum; strain not stated; read-out: MBC90
[21] = Dose response pharmacokinetics, plasma concentration by LC-MS/MS; type: in vivo, BALB/c mice; conditions: single oral dose 100 and 200 mg kg^-1, 2 and 4 h, mice
Experimental: P.O. dosing at 100, 200 and 300 mg kg^−1 was administered; after administration, blood was collected at 2 and 4 hour time points for quantification. Plasma concentration of the compounds 5 and 25 was determined using liquid chromatography tandem mass spectrometry. Data are presented as mean±SD.
Female BALB/c mice were given a dose of compounds 5 or 25 at 100, 200 and 300 mg kg′ by oral gavage in a volume of 0.2 mL. At 2 and 4 hours after compound administration, animals were euthanized and cardiac blood (approximately 0.7 mL) was collected. Plasma was separated using centrifugation at 12,000 g for 20 min at 4° C. and stored at […]. Concentrations of compounds 5 and 25 in plasma were analyzed with LC-tandem MS (LC-MS/MS, AB SCIEX QTRAP 5500 system) with warfarin as internal standard. MS detection of mass transitions 295.2/135.2 (Compound 5), 299.2/146.1 (Compound 25) and 309.1/163.0 (Warfarin) was carried out. Concentration calculation was performed with MultiQuant Software (Version 2.1, AB SCIEX). The pharmacokinetic profile of the test compound was analyzed from plasma concentration-time data after oral administration.

[22] = system: panel of mycobacteria; assay: MIC against a panel of mycobacteria (summary ranges); type: cell-based; conditions: M. avium and M. xenopi strains of Table 3
[23] = system: M. abscessus 103; conditions: mouse, in vivo, 300 mg/kg
[24] = infected SCID mice, daily 300 mg/kg in 20% cyclodextrin

O=C(NC12CC3CC(CC(C3)C1)C2)c1cc2ccccc2[nH]1 [Compound 5, N-(1-adamantyl)-1H-indole-2-carboxamide]
MIC ([1]; ATCC19977, read-out: MIC M. abscessus ATCC 19977): 0.25 µg/mL (≈ 0.849 µM)
MIC [2]: 0.25 µg/mL (≈ 0.849 µM)
Selectivity Index (TD50/MIC) M. abscessus DCI #21 ([2]; TD50 in THP-1 cells): >58
MIC ([3]; CIP108297, read-out: MIC M. massiliense CIP 108297): 0.5 µg/mL (≈ 1.7 µM)
MIC ([4]; CRM0019, read-out: MIC M. massiliense CRM 0019): 0.25 µg/mL (≈ 0.849 µM)
Selectivity Index (TD50/MIC) M. Massiliense CRM0019 ([4]; TD50 in THP-1 cells): >58
MIC ([5]; ATCC14472, read-out: MIC M. bolletii ATCC 14472): 0.25 µg/mL (≈ 0.849 µM)
Selectivity Index (TD50/MIC) M. bolletii ([5]; TD50 in THP-1 cells): >58
MIC ([6]; ATCC35752, read-out: MIC M. chelonae ATCC 35752): 0.25 µg/mL (≈ 0.849 µM)
MIC ([7]; Mycobacterium tuberculosis, H37RV, read-out: MIC M. tb H37 Rv (mc2-6206)): 0.2 µg/mL (≈ 0.679 µM)
Selectivity Index (TD50/MIC) M. tb H37Rv [7]: >73
MIC ([8]; MC^2155, read-out: MIC M. smeg. mc^2155): 1.56 µg/mL (≈ 5.3 µM)
MIC [9]: 8 µg/mL (≈ 27.2 µM)
MIC [10]: 8 µg/mL (≈ 27.2 µM)
MIC [11]: 0.5 to 1 µg/mL (≈ 1.7 to 3.4 µM)
MIC P. aeruginosa PAO-1 ([12]; Mueller Hinton II): inactive
MIC ([12]; PAO1, read-out: MIC P. aeruginosa PAO-1): > 160 µg/mL
MIC ([13]; ATCC25923, read-out: MIC S. aureus ATCC25923): > 160 µg/mL
TD50 [14]: >14.7 µg/mL
MIC ([15]; Mycobacteroides abscessus, 103, read-out: MIC M. abscessus 103, 7H9 Broth): > 64 µg/mL
MIC ([15]; Mycobacteroides abscessus, 103, read-out: MIC M. abscessus 103, MH Broth): 16 µg/mL (≈ 54.3 µM)
MIC ([16]; Mycobacteroides abscessus, 1513, read-out: MIC M. abscessus 1513, 7H9 Broth): > 64 µg/mL
MIC ([16]; Mycobacteroides abscessus, 1513, read-out: MIC M. abscessus 1513, MH Broth): 32 µg/mL (≈ 109 µM)
Tolerability (acute toxicity, MTD) [17]: well tolerated
log10 CFU liver counts on day 12 [18]: 5.30±0.23 log10 CFU
log10 CFU spleen counts on day 12 [18]: 3.79±0.40 log10 CFU
Survival until the Day 12 endpoint [18, 24]: all animals survived
Weight loss [18, 24]: didn't demonstrate any significant weight loss
TMM build-up and mycolic acid transfer onto arabinogalactan and TDM [19]: concentration-dependent build-up of TMM

Cc1cc(C)c2cc(C(=O)NC3CCCCCCC3)[nH]c2c1 [Compound 25, N-cyclooctyl-4,6-dimethyl-1H-indole-2-carboxamide]
MIC ([1]; ATCC19977, Mueller Hinton II, read-out: MIC M. abscessus ATCC 19977): 0.063 µg/mL (≈ 0.211 µM)
MIC ([2]; Mueller Hinton II): 0.0078 µg/mL (≈ 0.0261 µM)
MIC ([3]; CIP108297, Mueller Hinton II, read-out: MIC M. massiliense CIP 108297): 0.031 µg/mL (≈ 0.104 µM)
MIC ([4]; CRM0019, Mueller Hinton II, read-out: MIC M. massiliense CRM 0019): 0.0078 µg/mL (≈ 0.0261 µM)
MIC ([5]; ATCC14472, Mueller Hinton II, read-out: MIC M. bolletii ATCC 14472): 0.0039 µg/mL (≈ 0.0131 µM)
MIC ([6]; ATCC35752, Mueller Hinton II, read-out: MIC M. chelonae ATCC 35752): 0.063 µg/mL (≈ 0.211 µM)
Selectivity Index (TD50/MIC) M. tb H37Rv [7]: >764
MIC ([8]; MC^2155, 7H9-ADC-0.05% Tween 80, read-out: MIC M. smeg. mc^2155): 0.313 to 0.625 µg/mL (≈ 1.05 to 2.09 µM)
MIC ([10]; Mueller Hinton II): 1 µg/mL (≈ 3.35 µM)
MIC ([11]; Mueller Hinton II): 0.25 µg/mL (≈ 0.838 µM)
MIC P. aeruginosa PAO-1 ([12]; Mueller Hinton II): inactive
MIC ([12]; PAO1, Mueller Hinton II, read-out: MIC P. aeruginosa PAO-1): > 160 µg/mL
MIC ([13]; ATCC25923, Mueller Hinton II, read-out: MIC S. aureus ATCC25923): > 160 µg/mL
MBC [20]: 0.015 µg/mL (≈ 0.0503 µM)
TD50 [14]: >14.9 µg/mL
MBC ([15]; Mycobacteroides abscessus, 103; MH broth; read-out: MBC99 M. abscessus subsp. bolletii 103): 64 µg/mL (≈ 214 µM)
MIC ([15]; Mycobacteroides abscessus, 103; read-out: MIC M. abscessus 103, 7H9 Broth): > 64 µg/mL
MIC ([15]; Mycobacteroides abscessus, 103; read-out: MIC M. abscessus 103, MH Broth): 16 µg/mL (≈ 53.6 µM)
MBC ([16]; Mycobacteroides abscessus, 1513; MH broth; read-out: MBC99 M. abscessus subsp. abscessus 1513): 64 µg/mL (≈ 214 µM)
MIC ([16]; Mycobacteroides abscessus, 1513; read-out: MIC M. abscessus 1513, 7H9 Broth): > 64 µg/mL
MIC ([16]; Mycobacteroides abscessus, 1513; read-out: MIC M. abscessus 1513, MH Broth): 16 µg/mL (≈ 53.6 µM)
Tolerability (acute toxicity, MTD) [17]: well tolerated
Blood concentration compared to compound 5 [21]: lower blood concentration
MIC range in MAC panel [22]: 0.25 to 1 µg/mL
Survival until the Day 12 endpoint [23]: all animals survived
Weight loss [23]: didn't demonstrate any significant weight loss
log10 CFU liver counts on day 12 [18]: 4.90±0.49 log10 CFU
log10 CFU spleen counts on day 12 [18]: 2.91±0.45 log10 CFU
TMM build-up and mycolic acid transfer onto arabinogalactan and TDM [19]: concentration-dependent build-up of TMM
